Experimental data: PubChem BioAssay AID2060621 (Molecular Pharmacology Branch, DTP, NCI, 2025)
“And” between values parts separate entries of the source, which are not always exact repeats. Identical values can stand only once.

System: 324938-238-R-J1-PDC complex spheroids viability
Test: Anticancer human tumor 324938-238-R-J1-PDC patient-derived bladder carcinoma cell line growth inhibition [CLK]
Details: for viability, T/C: stronger effect = lower value
Procedure, shortened: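 Patient-derived tumor cells grown as complex spheroids with HUVEC endothelial cells and mesenchymal stem cells, treated with drug combinations. Concentrations descend in half-log steps from near clinical Cmax, or from 10 microM if Cmax unknown.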
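Further: viability read after seven days of drug exposure.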
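Wherever viability, T/C is given: 100% = DMSO vehicle control wells.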

Cn1ncnc1[C@H]1c2n[nH]c(=O)c3cc(F)cc(c23)N[C@@H]1c1ccc(F)cc1 + CN1CCN(c2cc(C(=O)Nc3cc4cc(-c5cnn(C)c5)ccc4cn3)ccn2)CC1
IC50 (curve of first compound, second compound 0.0316 µM): 0.00866 µM
IC50 (curve of first compound, second compound 0.1 µM): 0.00153 µM
IC50 (curve of first compound, second compound 0.316 µM): < 0.000316 µM
IC50 (curve of first compound, second compound 1 µM): < 0.000316 µM
IC50 (curve of first compound, second compound 3.16 µM): < 0.000316 µM
IC50 (curve of first compound, second compound 10 µM): < 0.000316 µM
viability, T/C (second compound 0.0316 µM, first compound 0.000316 µM): 78%
viability, T/C (second compound 0.0316 µM, first compound 0.001 µM): 74%
viability, T/C (second compound 0.0316 µM, first compound 0.00316 µM): 58.2%
viability, T/C (second compound 0.0316 µM, first compound 0.01 µM): 51.9%
viability, T/C (second compound 0.0316 µM, first compound 0.0316 µM): 32.5%
viability, T/C (second compound 0.0316 µM, first compound 0.1 µM): 24.4%
viability, T/C (second compound 0.1 µM, first compound 0.000316 µM): 57.5%
viability, T/C (second compound 0.1 µM, first compound 0.001 µM): 54.8%
viability, T/C (second compound 0.1 µM, first compound 0.00316 µM): 43.6%
viability, T/C (second compound 0.1 µM, first compound 0.01 µM): 32.7%
viability, T/C (second compound 0.1 µM, first compound 0.0316 µM): 27%
viability, T/C (second compound 0.1 µM, first compound 0.1 µM): 19.8%
viability, T/C (second compound 0.316 µM, first compound 0.000316 µM): 23.8%
viability, T/C (second compound 0.316 µM, first compound 0.001 µM): 22.4%
viability, T/C (second compound 0.316 µM, first compound 0.00316 µM): 23.1%
viability, T/C (second compound 0.316 µM, first compound 0.01 µM): 21.2%
viability, T/C (second compound 0.316 µM, first compound 0.0316 µM): 18.5%
viability, T/C (second compound 0.316 µM, first compound 0.1 µM): 15%
viability, T/C (second compound 1 µM, first compound 0.000316 µM): 0.86%
viability, T/C (second compound 1 µM, first compound 0.001 µM): 0.77%
viability, T/C (second compound 1 µM, first compound 0.00316 µM): 0.99%
viability, T/C (second compound 1 µM, first compound 0.01 µM): 0.51%
viability, T/C (second compound 1 µM, first compound 0.0316 µM): 0.6%
viability, T/C (second compound 1 µM, first compound 0.1 µM): 1.4%
viability, T/C (second compound 3.16 µM, first compound 0.000316 µM): 0.15%
viability, T/C (second compound 3.16 µM, first compound 0.001 µM): 0.2%
viability, T/C (second compound 3.16 µM, first compound 0.00316 µM): 0.14%
viability, T/C (second compound 3.16 µM, first compound 0.01 µM): 0.09%
viability, T/C (second compound 3.16 µM, first compound 0.0316 µM): 0.12%
viability, T/C (second compound 3.16 µM, first compound 0.1 µM): 0.14%
viability, T/C (second compound 10 µM, first compound 0.000316 µM): 0.07%
viability, T/C (second compound 10 µM, first compound 0.001 µM): 0.13%
viability, T/C (second compound 10 µM, first compound 0.00316 µM): 0.16%
viability, T/C (second compound 10 µM, first compound 0.01 µM): 0.12%
viability, T/C (second compound 10 µM, first compound 0.0316 µM): 0.12%
viability, T/C (second compound 10 µM, first compound 0.1 µM): 0.19%

CC1(C)CCC(CN2CCN(c3ccc(C(=O)NS(=O)(=O)c4ccc(NCC5CCOCC5)c([N+](=O)[O-])c4)c(Oc4cnc5[nH]ccc5c4)c3)CC2)=C(c2ccc(Cl)cc2)C1
viability, T/C (compound 0.0316 µM): 85.9% and 77.8%
viability, T/C (compound 0.1 µM): 79.9% and 82.2%
viability, T/C (compound 0.316 µM): 84.2% and 75.7%
viability, T/C (compound 1 µM): 82% and 77.7%
viability, T/C (compound 3.16 µM): 77.1% and 68.8%
viability, T/C (compound 10 µM): 46.6% and 10.4%
IC50 (curve of compound): 8.81 µM and 4.58 µM

C=C(F)C(=O)N1CCN(c2nc(OCC3CCCN3C)nc3c2CCN(c2cccc4cccc(Cl)c24)C3)CC1CC#N (stereo unspecified)
viability, T/C (compound 0.0316 µM): 79.2% and 88%
viability, T/C (compound 0.1 µM): 88.8% and 85.7%
viability, T/C (compound 0.316 µM): 89.3% and 88%
viability, T/C (compound 1 µM): 85.3% and 92.6%
viability, T/C (compound 3.16 µM): 35.5% and 55.8%
viability, T/C (compound 10 µM): 0.27% and 1.96%
IC50 (curve of compound): 2.26 µM and 3.58 µM
